Results from patent publication US20250074920A1, “MACROCYCLIC COMPOUNDS AND USE AS KINASE INHIBITORS” (BLOSSOMHILL THERAPEUTICS, INC., priority 2022, published 2025).

What was measured:
Test in all cases: KINOMEscan kinase binding assay
Settings in all cases: at 1 μM
[1] = system: FLT3(K663Q)
Procedure, shortened: (§1)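 qPCR read-out of kinase retained on ligand-coated streptavidin beads. Binding buffer: 20% SeaBlock, 0.17×PBS, 0.05% Tween 20, 6 mM DTT; 1 h RT with shaking. % Ctrl = (test − positive control)/(negative control − positive control)×100; lower values mean stronger binding.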

[2] = system: FRK
Procedure, shortened: as §1

[3] = system: EGFR(L747-E749del, A750P)
Procedure, shortened: as §1

[4] = system: RET(V804M)
Procedure, shortened: as §1

[5] = system: ERBB2
Procedure, shortened: as §1

[6] = system: EGFR(L858R)
Procedure, shortened: (§2)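 Immobilized-ligand competition, qPCR-quantified. Kinase sources: T7 phage lysates from BL21-type E. coli, or HEK-293 expression plus DNA tag. Results expressed as % Ctrl (lower = stronger binding) and as Kd from capture versus concentration curves.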

[7] = system: LCK
Procedure, shortened: as §1

[8] = system: EGFR(E746-A750del)
Procedure, shortened: as §1

[9] = system: EPHB4
Procedure, shortened: as §1

[10] = system: ABL1-phosphorylated
Procedure, shortened: as §1

[11] = system: EPHA6
Procedure, shortened: as §2

[12] = system: EPHA2
Procedure, shortened: as §2

[13] = system: MST1R
Procedure, shortened: as §1

[14] = system: FAK
Procedure, shortened: as §1

[15] = system: ABL1(T315I)-phosphorylated
Procedure, shortened: as §1

[16] = system: PDGFRA
Procedure, shortened: as §1

[17] = system: FLT3(D835V)
Procedure, shortened: as §1

[18] = system: FLT3
Procedure, shortened: as §1

[19] = system: ALK(C1156Y)
Procedure, shortened: as §1

[20] = system: ABL1(Q252H)-phosphorylated
Procedure, shortened: as §1

[21] = system: RET(V804L)
Procedure, shortened: as §1

[22] = system: EGFR(T790M)
Procedure, shortened: as §1

[23] = system: KIT(V559D, V654A)
Procedure, shortened: as §1

[24] = system: EPHA3
Procedure, shortened: as §2

[25] = system: EPHA1
Procedure, shortened: as §2

[26] = system: MET(M1250T)
Procedure, shortened: as §1

[27] = system: FLT3-autoinhibited
Procedure, shortened: as §1

[28] = system: ABL1(F317L)-phosphorylated
Procedure, shortened: as §1

[29] = system: INSR
Procedure, shortened: as §1

[30] = system: EPHB6
Procedure, shortened: as §1

[31] = system: EPHB1
Procedure, shortened: as §1

[32] = system: EPHA8
Procedure, shortened: as §1

[33] = system: TRKA
Procedure, shortened: as §1

[34] = system: AXL
Procedure, shortened: as §1

[35] = system: DDR1
Procedure, shortened: as §1

[36] = system: ABL1(F317L)-nonphosphorylated
Procedure, shortened: as §1

[37] = system: KIT-autoinhibited
Procedure, shortened: as §1

[38] = system: TRKB
Procedure, shortened: as §1

[39] = system: VEGFR2
Procedure, shortened: as §1

[40] = system: ITK
Procedure, shortened: as §1

[41] = system: BLK
Procedure, shortened: as §1

Structure (SMILES): Cc1cc2c([nH]1)/C=C1\C(=O)Nc3c(Cl)cc(cc31)-c1cn(C)nc1COC[C@@H](C)N(C)C2=O [Cpd. 5, [3a(4)Z,10R]-20-chloro-6,9,10,15-tetramethyl-10,11,13,15-tetrahydro-2H-1,17-(ethanediylidene)pyrazolo[4,3-m]dipyrrolo[3,2-f:3′,4′-i][1,4]oxazacyclopentadecine-3,8(5H,9H)-dione]
- % Ctrl [1]: 87%
- % Ctrl [2]: 80%
- % Ctrl [3]: 74%
- % Ctrl [4]: 90%
- % Ctrl [5]: 100%
- % Ctrl [6]: 90%
- % Ctrl [7]: 94%
- % Ctrl [8]: 95%
- % Ctrl [9]: 91%
- % Ctrl [10]: 79%
- % Ctrl [11]: 91%
- % Ctrl [12]: 100%
- % Ctrl [13]: 95%
- % Ctrl [14]: 96%
- % Ctrl [15]: 70%
- % Ctrl [16]: 95%
- % Ctrl [17]: 89%
- % Ctrl [18]: 94%
- % Ctrl [19]: 90%
- % Ctrl [20]: 89%
- % Ctrl [21]: 84%
- % Ctrl [22]: 80%
- % Ctrl [23]: 91%
- % Ctrl [24]: 79%
- % Ctrl [25]: 82%
- % Ctrl [26]: 100%
- % Ctrl [27]: 87%
- % Ctrl [28]: 83%
- % Ctrl [29]: 94%
- % Ctrl [30]: 92%
- % Ctrl [31]: 92%
- % Ctrl [32]: 77%
- % Ctrl [33]: 53%
- % Ctrl [34]: 86%
- % Ctrl [35]: 93%
- % Ctrl [36]: 86%
- % Ctrl [37]: 83%
- % Ctrl [38]: 100%
- % Ctrl [39]: 92%
- % Ctrl [40]: 96%
- % Ctrl [41]: 87%

Structure (SMILES): Cc1cc2c([nH]1)/C=C1\C(=O)Nc3ccc(cc31)-c1c(nn(C)c1C)COCCN(C)C2=O [Cpd. 2, [3a(4)Z]-6,9,15,16-tetramethyl-10,11,13,15-tetrahydro-2H-1,17-(ethanediylidene)pyrazolo[4,3-m]dipyrrolo[3,2-f:3′,4′-i][1,4]oxazacyclopentadecine-3,8(5H,9H)-dione]
- % Ctrl [1]: 47%
- % Ctrl [2]: 98%
- % Ctrl [3]: 85%
- % Ctrl [4]: 77%
- % Ctrl [5]: 100%
- % Ctrl [6]: 78%
- % Ctrl [7]: 100%
- % Ctrl [8]: 100%
- % Ctrl [9]: 100%
- % Ctrl [10]: 50%
- % Ctrl [11]: 100%
- % Ctrl [12]: 85%
- % Ctrl [13]: 100%
- % Ctrl [14]: 96%
- % Ctrl [15]: 5.3%
- % Ctrl [16]: 73%
- % Ctrl [17]: 7.9%
- % Ctrl [18]: 67%
- % Ctrl [19]: 93%
- % Ctrl [20]: 62%
- % Ctrl [21]: 80%
- % Ctrl [22]: 85%
- % Ctrl [23]: 92%
- % Ctrl [24]: 99%
- % Ctrl [25]: 100%
- % Ctrl [26]: 98%
- % Ctrl [27]: 83%
- % Ctrl [28]: 78%
- % Ctrl [29]: 100%
- % Ctrl [30]: 93%
- % Ctrl [31]: 99%
- % Ctrl [32]: 92%
- % Ctrl [33]: 20%
- % Ctrl [34]: 43%
- % Ctrl [35]: 100%
- % Ctrl [36]: 87%
- % Ctrl [37]: 100%
- % Ctrl [38]: 12%
- % Ctrl [39]: 48%
- % Ctrl [40]: 80%
- % Ctrl [41]: 98%

Structure (SMILES): Cc1cc2c([nH]1)/C=C1\C(=O)Nc3ccc(cc31)-c1c(nn(C)c1C)OCCCN(C)C2=O [Cpd. 1, [3a(4)Z]-6,9,15,16-tetramethyl-9,10,11,12-tetrahydro-15H-1,17-(ethanediylidene)pyrazolo[4,3-n]dipyrrolo[3,2-g:3′,4′-j][1,5]oxazacyclopentadecine-3,8(2H,5H)-dione]
- % Ctrl [1]: 80%
- % Ctrl [2]: 93%
- % Ctrl [3]: 100%
- % Ctrl [4]: 100%
- % Ctrl [5]: 98%
- % Ctrl [6]: 100%
- % Ctrl [7]: 95%
- % Ctrl [8]: 95%
- % Ctrl [9]: 86%
- % Ctrl [10]: 81%
- % Ctrl [11]: 94%
- % Ctrl [12]: 97%
- % Ctrl [13]: 100%
- % Ctrl [14]: 85%
- % Ctrl [15]: 95%
- % Ctrl [16]: 87%
- % Ctrl [17]: 61%
- % Ctrl [18]: 92%
- % Ctrl [19]: 100%
- % Ctrl [20]: 99%
- % Ctrl [21]: 82%
- % Ctrl [22]: 88%
- % Ctrl [23]: 100%
- % Ctrl [24]: 86%
- % Ctrl [25]: 100%
- % Ctrl [26]: 83%
- % Ctrl [27]: 92%
- % Ctrl [28]: 86%
- % Ctrl [29]: 95%
- % Ctrl [30]: 100%
- % Ctrl [31]: 87%
- % Ctrl [32]: 100%
- % Ctrl [33]: 67%
- % Ctrl [34]: 85%
- % Ctrl [35]: 97%
- % Ctrl [36]: 83%
- % Ctrl [37]: 81%
- % Ctrl [38]: 87%
- % Ctrl [39]: 93%
- % Ctrl [40]: 89%
- % Ctrl [41]: 87%
